Assay results published in patent US7807676B2, “Diketo-Piperazine and Piperidine derivatives as antiviral agents” (priority 2006, dated 2010).

System: HIV-1 single-round infectious reporter virus
Test: Single-round infectious HIV-1 luciferase reporter virus infection of HeLa CD4 cells (antiviral EC50)
Assay type: cell-based
Conditions: Human immunodeficiency virus 1, HeLa, read-out: EC50 Group from Table 3
In short: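 Env-pseudotyped single-round HIV-1 reporter virus (env-deleted provirus with luciferase in place of nef, made in 293 cells) infected HeLa CD4 cells at MOI ~0.01 with compound present, up to 10 μM final. Luciferase luminescence read after 72 h at 37 °C; EC50 from four-parameter logistic fit of % inhibition over 10 concentrations.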

Row | SMILES | EC50
1 | CN(C)c1nc(N2CCN(C(=O)C(=O)c3c[nH]c4c(-n5ccnn5)ncc(F)c34)CC2)n(-c2ccccc2)n1 [G-4a] | < 500 nM
2 | COc1cnc(-n2cnc(C)n2)c2[nH]cc(C(=O)C(=O)N3CCN(c4cnnn4-c4ccccn4)CC3)c12 [G-22b] | < 500 nM
3 | C[C@@H]1CN(c2ncnc3cc(-c4ccccc4)sc23)CCN1C(=O)C(=O)c1c[nH]c2c(-n3ccnn3)ncc(F)c12 [D-27] | < 500 nM
4 | COc1cnc(-n2cnc(C)n2)c2[nH]cc(C(=O)C(=O)N3CCN(c4nonc4-c4ccccc4)CC3)c12 [G-1a] | < 500 nM
5 | COc1cnc(-n2cnc(C)n2)c2[nH]cc(C(=O)C(=O)N3CCN(c4nnnn4-c4ccccn4)CC3)c12 [E-2] | < 500 nM
6 | CCOC(=O)c1ncc(F)c2c(C(=O)C(=O)N3CCN(c4nnnn4-c4ccccc4)CC3)c[nH]c12 [B-57] | < 500 nM
7 | CCOC(=O)CCCCC(=O)c1cccnc1N1CCN(C(=O)C(=O)c2c[nH]c3c(-n4ccnn4)ncc(F)c23)CC1 [D-42] | > 500 nM
8 | O=C(C(=O)N1CCN(c2ncccc2-c2nc3ccccc3s2)CC1)c1c[nH]c2c(-n3ccnn3)ncc(F)c12 [D-31] | > 500 nM
9 | CN(C)C(=O)C(=O)Nc1ncc(F)c2c(C(=O)C(=O)N3CCN(c4nnnn4-c4ccccc4)CC3)c[nH]c12 [B-20, N^1-(4-fluoro-3-(2-oxo-2-(4-(1-phenyl-1H-tetrazol-5-yl)piperazin-1-yl)acetyl)-1H-pyrrolo[2,3-c]pyridin-7-yl)-N^2,N^2-dimethyloxalamide] | < 500 nM
10 | COc1cnc(-n2cnc(C)n2)c2[nH]cc(C(=O)C(=O)N3CCC(C4=NCCN4c4ccccc4)CC3)c12 [G-17b] | < 500 nM
11 | COc1cnc(-n2cnc(C)n2)c2[nH]cc(C(=O)C(=O)N3CCN(c4ncccc4C)CC3)c12 [D-3] | < 500 nM
12 | O=C(C(=O)N1CCN(c2nccnc2-c2ccccc2)CC1)c1c[nH]c2c(-n3ccnn3)ncc(F)c12 [A-17] | < 500 nM
13 | COc1cnc(-n2cnc(C)n2)c2[nH]cc(C(=O)C(=O)N3CCN(c4ccnnc4-c4ccccc4)CC3)c12 [G-15b] | < 500 nM
14 | CN(C)c1cnc(C(=O)NCCO)c2[nH]cc(C(=O)C(=O)N3CCN(c4nnnn4-c4ccccc4)CC3)c12 [B-56] | < 500 nM
15 | CCOc1cccnc1N1CCN(C(=O)C(=O)c2c[nH]c3c(-n4cnc(C)n4)ncc(OC)c23)CC1 [A-63] | < 500 nM
16 | CCOC(=O)CCCC(=O)c1cccnc1N1CCN(C(=O)C(=O)c2c[nH]c3c(-n4ccnn4)ncc(F)c23)CC1 [D-41] | > 500 nM
17 | CN(C)C(=O)Nc1ncc(F)c2c(C(=O)C(=O)N3CCN(c4nnnn4-c4ccccc4)CC3)c[nH]c12 [B-19, 3-(4-fluoro-3-(2-oxo-2-(4-(1-phenyl-1H-tetrazol-5-yl)piperazin-1-yl)acetyl)-1H-pyrrolo[2,3-c]pyridin-7-yl)-1,1-dimethylurea] | < 500 nM
18 | CN1CCC(N(C)C(=O)c2cc(-c3ncc(F)c4c(C(=O)C(=O)N5CCN(c6nnnn6-c6ccccc6)CC5)c[nH]c34)n[nH]2)C1 (centres unmarked) [F-2] | < 500 nM
19 | COc1cnc(-n2cnc(C)n2)c2[nH]cc(C(=O)C(=O)N3CCN(c4nnnn4-c4cccc(N)n4)CC3)c12 [E-12b] | < 500 nM
20 | Cn1ncc(N2CCN(C(=O)C(=O)c3c[nH]c4c(-n5ccnn5)ncc(F)c34)CC2)c1-c1ccccc1 [G-13a] | < 500 nM
21 | O=C(C(=O)N1CCN(c2nncn2-c2ccccc2)CC1)c1c[nH]c2c(-n3ccnn3)ncc(F)c12 [A-20] | < 500 nM
22 | COc1cnc(-n2cnc(C)n2)c2[nH]cc(C(=O)C(=O)N3CCN(c4ncccc4C#N)CC3)c12 [D-1] | < 500 nM
23 | COc1cnc(-n2cnc(C)n2)c2[nH]cc(C(=O)C(=O)N3CCN(c4cn(CCN(C)C)nc4-c4ccccc4)CC3)c12 [G-6a] | < 500 nM
24 | O=C(C(=O)N1CCC(N2CCN=C2c2ccccc2)CC1)c1c[nH]c2c(-n3ccnn3)ncc(F)c12 [G-10a] | > 500 nM
25 | O=C(C(=O)N1CCN(c2nc(-c3ccccc3)cs2)CC1)c1c[nH]c2c(-n3ccnn3)ncc(F)c12 [A-8] | < 500 nM
26 | COc1cnc(-n2cnc(C)n2)c2[nH]cc(C(=O)C(=O)N3CCN(c4cn(CC#N)nc4-c4ccccc4)CC3)c12 [G-21] | < 500 nM
